Measured values taken from patent US20250152564A1, “PROPYLENE KETONE-CONTAINING BIOINHIBITOR, PREPARATION METHOD THEREFOR, AND USE THEREOF” (SHANGHAI HANSOH BIOMEDICAL CO., LTD., priority 2022, published 2025).

Experiments:
FGFR3 = FGFR3 (Homo sapiens (Human), UniProt P22607); assay: TR-FRET kinase inhibition assay, FGFR3; type: biochemical; details: ATP Km concentration (30 μM)
Procedure: To measure the IC50 values of the compounds against FGFR1, FGFR2, FGFR3, FGFR4, and FGFR2 V564F at ATP Km concentrations by TR-FRET method.
TR-FRET (time-resolved fluorescence resonance energy transfer) method was used to detect the inhibitory activity of the compounds on FGFR1, FGFR2, FGFR3, FGFR4, and FGFR2 V564F kinase region fragments. The highest detection concentration of the compounds in 5 kinase experiments was 1000 nM, which was diluted in 3 folds, with a total of 11 concentrations (1000 nM to 0.017 nM). A kinase buffer (50 mM HEPES pH 7.5, 1 mM EGTA, 10 mM MgCl2, 2 mM DTT, and 0.01% Tween-20) was used to prepare 4× enzyme solution, 4× compound solutions diluted in gradient, and a 2×ATP/Peptide substrate solution. To a 384-well plate, 2.5 μL of enzyme solution and 2.5 μL of diluted […] compound solution were added, and 5 μL of 2×ATP/Peptide substrate solution was then added. After reacting at room temperature for 60 minutes for FGFR1, FGFR2, FGFR3, and FGFR2 V564F kinases, and 120 minutes for FGFR4 kinase, 10 μL of a 2× termination and detection mixed liquid prepared with 1×LANCE detection buffer with an EDTA concentration of 20 mM and a Europium-anti-phosphotyrosine (PT66) concentration of 2 nM was added to each well of the plate. After reacting at room temperature for 60 minutes for FGFR1, FGFR2, FGFR3, and FGFR4, and 30 minutes for FGFR2 V564F, the fluorescence signal value in each well of the plate was measured by a microplate reader.
1) Inhibition rate (%): Calculation was performed on the raw data (665 nm/620 nm reading ratio) according to the following formula to obtain the inhibition rate. Inhibition rate %=[(mean value in positive control well−value in sample well)/(mean value in positive control well−mean value in negative control well)]×100, wherein the positive control well was a reaction well without a compound […], and the negative control well was a reaction wells without an enzyme.
2) Curve fitting: Log(inhibitor) vs. response—Variable slope (four parameters) in GraphPad Prism 6 was used for fitting equation analysis of the compound concentration and the corresponding inhibition rate, and the curve was fitted to obtain the IC50 values of the compounds.

[1] = system: BaF3 FGFR2-BICC1 V564F cells; assay: CellTiter-Glo cell proliferation inhibition, BaF3 FGFR2-BICC1 V564F; type: cell-based; details: Mus musculus, 72 h, read-out: BaF3 FGFR2-BICC1 V564F inhibitory activity IC50
Outline: (§1)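 Cells plated, compound added next day as 9-point 3-fold series from 1000 nM to 0.15 nM, incubated 72 h. Viability by CellTiter-Glo luminescence; IC50 from four-parameter variable-slope fit of percent inhibition.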

FGFR2 V564F = FGFR2 V564F (Homo sapiens (Human), UniProt P21802, V564F); assay: TR-FRET kinase inhibition assay, FGFR2 V564F; type: biochemical; details: ATP Km concentration (20 μM)
Outline: (§2)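 Kinase-domain fragments in 50 mM HEPES pH 7.5 with 10 mM MgCl2, ATP at Km plus peptide substrate; 60 min reaction at room temperature, then EDTA/Eu-anti-phosphotyrosine (PT66) detection for 60 min (30 min for V564F). 11-point 3-fold dilutions from 1000 nM; IC50 from four-parameter fit of 665/620 nm ratio inhibition.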

FGFR1 = FGFR1 (Homo sapiens (Human), UniProt P11362); assay: TR-FRET kinase inhibition assay, FGFR1; type: biochemical; details: ATP Km concentration (30 μM)
Outline: as §2

NCI-H716 cells = assay: CellTiter-Glo cell proliferation inhibition, NCI-H716; type: cell-based; details: Homo sapiens, 72 h, read-out: NCI-H716 cell proliferation inhibition rate IC50
Outline: as §1

FGFR2 = FGFR2 (Homo sapiens (Human), UniProt P21802); assay: TR-FRET kinase inhibition assay, FGFR2; type: biochemical; details: ATP Km concentration (30 μM)
Outline: as §2

[2] = Pharmacokinetic experiment in SD rats after oral administration; type: in vivo; details: 5 mg/kg, plasma; for AUC(0-t) / AUC(0-inf) / half-life / MRT / Cmax: male, Sprague-Dawley (SD), rat, po; for AUC(0-t): read-out: Area under the curve AUC0-t; for AUC(0-inf): read-out: Area under the curve AUC0-∞; for half-life: read-out: Half-life t1/2 (converted); for MRT: read-out: Mean residence time MRT; for Cmax: read-out: Plasma concentration Cmax; for Time to peak tmax: p.o.

Sequence of FGFR2 (P21802 481-770): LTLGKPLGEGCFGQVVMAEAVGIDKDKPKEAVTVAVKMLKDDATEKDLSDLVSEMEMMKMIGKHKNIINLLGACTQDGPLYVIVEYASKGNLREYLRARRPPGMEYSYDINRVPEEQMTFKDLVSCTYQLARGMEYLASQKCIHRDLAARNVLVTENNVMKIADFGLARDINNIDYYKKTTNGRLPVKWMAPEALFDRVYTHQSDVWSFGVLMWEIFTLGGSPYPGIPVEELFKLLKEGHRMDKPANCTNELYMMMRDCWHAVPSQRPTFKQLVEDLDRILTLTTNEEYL
Sequence of FGFR1 (P11362 478-767): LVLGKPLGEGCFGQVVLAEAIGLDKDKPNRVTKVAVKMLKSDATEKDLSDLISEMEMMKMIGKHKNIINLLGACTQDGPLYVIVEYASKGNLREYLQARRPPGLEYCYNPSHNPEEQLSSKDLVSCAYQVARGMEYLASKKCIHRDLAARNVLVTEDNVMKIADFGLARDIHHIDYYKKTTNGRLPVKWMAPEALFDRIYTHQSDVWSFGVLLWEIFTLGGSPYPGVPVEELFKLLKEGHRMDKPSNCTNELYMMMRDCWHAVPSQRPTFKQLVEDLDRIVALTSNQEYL
Sequence of FGFR3 (P22607 472-761): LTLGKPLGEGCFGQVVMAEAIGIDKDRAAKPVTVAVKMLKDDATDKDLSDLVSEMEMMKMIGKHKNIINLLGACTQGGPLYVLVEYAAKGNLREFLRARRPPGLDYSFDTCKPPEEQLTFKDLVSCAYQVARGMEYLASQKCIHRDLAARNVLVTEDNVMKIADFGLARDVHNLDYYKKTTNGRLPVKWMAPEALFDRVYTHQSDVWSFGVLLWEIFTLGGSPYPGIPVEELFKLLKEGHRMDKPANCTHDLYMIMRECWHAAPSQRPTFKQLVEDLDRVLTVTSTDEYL
Sequence of FGFR2 V564F (P21802 481-770 V564F): as the sequence (P21802 481-770) above, with V84F counted along it

| IC50 (FGFR3) [nM] | IC50 [1] [nM] | IC50 (FGFR2 V564F) [nM] | IC50 (FGFR1) [nM] | IC50 (NCI-H716 cells) [nM] | IC50 (FGFR2) [nM] | AUC(0-t) [2] [ng·h/mL] | AUC(0-inf) [2] [ng·h/mL] | half-life [2] [h] | MRT [2] [h] | Cmax [2] [ng/mL] | Time to peak tmax [2] [h] | SMILES |
| --- | --- | --- | --- | --- | --- | --- | --- | --- | --- | --- | --- | --- |
| 0.5 | 0.5 | 0.3 | 1.4 | 0.21 | 0.3 | 2800 | 2910 | 1.4 | 3.05 | 677 | 1 | C=CC(=O)N1CC[C@H](n2nc(C#Cc3ccc4cn(C)nc4c3)c3c(N)ncc(C(C)=O)c32)C1 [Example 82, (S)-1-(3-(7-acetyl-4-amino-3-((2-methyl-2H-indazol-6-yl)alkynyl)-1H-pyrazolo[4,3-c]pyridin-1-yl)pyrrolidine-1-methyl)prop-2-en-1-one] |
| 1.6 | 1.5 | 2.1 | 7.3 | 1.97 | 1.4 | 1150 | 1150 | 0.6 | 2.26 | 298 | 0.5 | C=CC(=O)N1CC[C@H](n2nc(C#Cc3ccc4ccnn4c3)c3c(N)ncc(C(=O)CC)c32)C1 [Example 72, (S)-1-(3-(4-amino-7-propionyl-3-(pyrazolo[1,5-a]pyridine-6-ethynylene)-1H-pyrazolo[4,3-c]pyridin-1-yl)pyrrolidine-1-methyl)prop-2-en-1-one] |
